Measured values taken from publication PMC10300155, “Inhibition of TRPV4 remodels single cell polarity and suppresses the metastasis of hepatocellular carcinoma” (Cell Death & Disease, 2023).

Columns and labels:
[1] = biological target: T1, TRPV4 (purified, fluorescently labeled) (Homo sapiens, UniProt Q9HBA0); test: microscale thermophoresis (Monolith NT.[…]); assay type: binding
T1 construct: purified protein, fluorescently labeled for MST

[2] = biological target: T2, TRPV4 (native, MHCC-97H cells) (Homo sapiens, UniProt Q9HBA0); test: Fluo-4 AM calcium influx, flow cytometry; assay type: cell-based; conditions: inhibitor; 0.5 h pre-treatment; agonist GSK1016790A; adherent MHCC-97H cells
T2 construct: endogenous channel in human hepatocellular carcinoma MHCC-97H cells
T2 sequence (Q9HBA0 whole entry): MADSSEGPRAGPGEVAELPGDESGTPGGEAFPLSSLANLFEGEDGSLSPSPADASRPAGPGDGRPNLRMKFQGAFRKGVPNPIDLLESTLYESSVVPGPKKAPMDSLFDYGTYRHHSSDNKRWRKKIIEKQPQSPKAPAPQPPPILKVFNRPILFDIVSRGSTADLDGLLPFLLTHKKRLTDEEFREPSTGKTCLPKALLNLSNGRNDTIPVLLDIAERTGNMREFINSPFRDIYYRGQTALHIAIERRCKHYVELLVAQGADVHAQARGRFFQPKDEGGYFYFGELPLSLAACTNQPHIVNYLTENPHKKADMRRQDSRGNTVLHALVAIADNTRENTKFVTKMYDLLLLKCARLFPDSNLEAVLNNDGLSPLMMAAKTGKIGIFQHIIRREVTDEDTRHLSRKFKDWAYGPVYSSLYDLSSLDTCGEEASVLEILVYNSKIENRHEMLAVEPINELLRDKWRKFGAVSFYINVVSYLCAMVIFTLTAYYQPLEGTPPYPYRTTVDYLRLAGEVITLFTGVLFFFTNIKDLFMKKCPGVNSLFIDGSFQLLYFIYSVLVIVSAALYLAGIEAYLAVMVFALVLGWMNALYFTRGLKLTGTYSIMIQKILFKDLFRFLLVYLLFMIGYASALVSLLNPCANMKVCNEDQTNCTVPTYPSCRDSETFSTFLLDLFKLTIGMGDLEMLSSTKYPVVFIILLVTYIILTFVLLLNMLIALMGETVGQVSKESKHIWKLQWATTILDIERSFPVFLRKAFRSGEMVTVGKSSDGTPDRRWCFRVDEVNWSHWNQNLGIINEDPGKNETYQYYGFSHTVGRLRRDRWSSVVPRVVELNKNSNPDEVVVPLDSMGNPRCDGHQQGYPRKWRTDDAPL

T1 sequence (Q9HBA0 whole entry): as above

Q: Which Kd [1] does the source give for `COc1c(OCCCCN2CCCC2)cc(O)c2c(=O)cc(-c3ccccc3)oc12` [GL-V9, 5-hydroxy-8-methoxy-2-phenyl-7-(4-(pyrro-lidin-1-yl)butoxy)4H-chromen-4-one] here?
A: Its Kd is 106 nM.

Q: What about the “Fluo-4 AM calcium influx, flow cytometry” value [2] of the same molecule?
A: The value was “substantially reduced the calcium influx brought on by GSK1016790A”.
